Experimental findings from US12252524B2, “GIP/GLP1 co-agonist compounds” (Eli Lilly and Company, priority 2018, dated 2025) are described below.

In assay [1] the target is T1, human GLP-1R (Homo sapiens, UniProt P43220). Briefly: GLP-1R CHO cell β-arrestin recruitment assay. Format: cell-based. Conditions: for hGLP1R B-Arrestin2 % Top: normalized to GLP-1 maximum control. Also on record: host or cells: CHO-K1 PathHunter cells, assay-ready frozen. The procedure, abridged: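 Peptide-induced β-arrestin-2 recruitment measured by enzyme-fragment complementation luminescence after 90 min at 37 °C plus 60 min detection at RT.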
T1 sequence (P43220 24-463): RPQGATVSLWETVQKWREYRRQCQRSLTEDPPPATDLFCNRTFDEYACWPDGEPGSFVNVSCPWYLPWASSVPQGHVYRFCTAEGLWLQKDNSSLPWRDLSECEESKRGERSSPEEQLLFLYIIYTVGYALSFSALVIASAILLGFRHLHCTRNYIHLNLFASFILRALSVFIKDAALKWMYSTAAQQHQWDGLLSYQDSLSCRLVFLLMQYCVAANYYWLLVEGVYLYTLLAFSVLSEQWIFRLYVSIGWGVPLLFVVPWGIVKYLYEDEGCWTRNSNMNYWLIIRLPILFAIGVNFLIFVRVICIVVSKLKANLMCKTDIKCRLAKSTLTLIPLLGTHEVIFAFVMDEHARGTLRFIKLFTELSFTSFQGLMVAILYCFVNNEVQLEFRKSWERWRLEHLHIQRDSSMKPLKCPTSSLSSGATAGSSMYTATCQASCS
A general note: Arrestin recruitment assays detect the binding of arrestin to an activated receptor.

In assay [2] the target is T1, human GLP-1R. In words: [125I]-GLP-1 binding (SPA), human GLP-1 receptor. The arrangement: expressed in transfected cells; crude membranes. In short, it runs like this: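 Membranes: hypotonic lysis (50 mM Tris HCl, pH 7.5, protease inhibitors), Potter-Elvehjem homogenization, high-speed pellet (35000×g 1 h or 25000×g 30 min, 4° C.). Buffer: 25 mM HEPES pH 7.4, 2.5 mM CaCl2, 1 mM MgCl2. Four-parameter IC50 fit; Ki as geometric mean ± SEM.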

Assay [3] has as its target human GLP-1 receptor (GLP-1R) (Homo sapiens, UniProt P43220). Briefly: cAMP pharmacological functional assay in presence of casein, hGLP-1R. The format is cell-based.
In a further assay the target is T2, human Gcg receptor (Homo sapiens, UniProt P47871).
T2 construct: expressed in transfected cells; crude membranes
T2 sequence (P47871 26-477): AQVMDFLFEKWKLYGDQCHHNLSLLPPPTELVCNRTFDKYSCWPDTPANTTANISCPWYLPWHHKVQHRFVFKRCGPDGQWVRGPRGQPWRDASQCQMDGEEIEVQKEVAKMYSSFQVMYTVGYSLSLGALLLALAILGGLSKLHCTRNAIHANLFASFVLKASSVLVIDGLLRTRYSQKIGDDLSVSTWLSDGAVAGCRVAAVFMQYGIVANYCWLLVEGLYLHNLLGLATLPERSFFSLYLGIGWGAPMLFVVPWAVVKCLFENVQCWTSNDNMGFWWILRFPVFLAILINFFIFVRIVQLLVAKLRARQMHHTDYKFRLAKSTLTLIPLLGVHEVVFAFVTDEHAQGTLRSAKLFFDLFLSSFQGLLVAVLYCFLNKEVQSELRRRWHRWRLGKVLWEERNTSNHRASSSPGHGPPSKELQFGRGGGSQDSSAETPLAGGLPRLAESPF
Briefly: [125I]-Glucagon binding (SPA), human Gcg receptor. In short, it runs like this:
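Crude membranes from cells expressing the receptor, prepared by hypotonic lysis in 50 mM Tris HCl pH 7.5 with protease inhibitors, homogenization and differential centrifugation, were used in a WGA-bead SPA. Binding buffer: 25 mM HEPES pH 7.4, 2.5 mM CaCl2, 1 mM MgCl2, bacitracin, Tween-20.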

Assay [4] has as its target T1, human GLP-1R. In words: GLP-1R HEK293 cell membrane [35S]GTPγS binding assay. The format is biochemical. Also on record: expressed in transfected cells; host or cells: HEK293 cells expressing human GLP-1R; membranes. In short, it runs like this:
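Agonist-driven Gαs activation read as [35S]GTPγS ([…]) binding to receptor-expressing HEK293 membranes, 30 min at room temperature, pH 7.4. Detection by anti-Gαs immunocapture on scintillation beads; EC50 derived from four-parameter logistic concentration-response fit.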

Assay [5] has as its target T3, gastric inhibitory peptide receptor (GIPR) (Homo sapiens, UniProt P48546).
T3 sequence (P48546 22-466): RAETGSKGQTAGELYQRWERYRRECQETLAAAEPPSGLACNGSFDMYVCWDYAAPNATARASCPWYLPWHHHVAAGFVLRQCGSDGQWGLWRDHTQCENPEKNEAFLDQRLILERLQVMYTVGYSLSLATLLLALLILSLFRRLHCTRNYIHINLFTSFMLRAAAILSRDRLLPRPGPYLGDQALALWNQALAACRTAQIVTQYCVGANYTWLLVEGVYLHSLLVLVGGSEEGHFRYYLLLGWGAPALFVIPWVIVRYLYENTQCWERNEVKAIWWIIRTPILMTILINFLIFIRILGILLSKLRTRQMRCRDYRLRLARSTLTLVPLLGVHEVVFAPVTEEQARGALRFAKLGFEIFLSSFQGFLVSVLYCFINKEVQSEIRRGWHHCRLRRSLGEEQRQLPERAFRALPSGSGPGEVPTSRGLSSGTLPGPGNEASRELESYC
Briefly: cAMP pharmacological functional assay in presence of casein, hGIPR. Format: cell-based.

A further assay addresses T4, human GIP receptor (Homo sapiens, UniProt P48546).
T4 construct: expressed in transfected cells; crude membranes
T4 sequence (P48546 22-466): T3 sequence (P48546 22-466)
In words: [125I]-GIP binding (SPA), human GIP receptor.

[6] abbreviates: CHO-K1 cells, PathHunter β-arrestin-2 recruitment, 0.1% casein, read-out: hGLP1R B-Arrestin2 Rel EC50 uM (SEM, n).
The mark [7] stands for this setting: read-out: hGLP1R Ki, (nM) (SEM, n).
Where [8] appears, read: HEK293 cells expressing hGLP-1R, 0.1% Casein, geometric mean, read-out: hGLP1R cAMP Rel EC50 nM (SEM, n).
Setting [9] is: read-out: hGLcgR Ki, nM (SEM, n).
Setting [10] is: HEK293 cell membranes expressing human GLP-1R, [35S]GTPγS binding, read-out: hGLP1R GTPgS Rel EC50 nM (SEM, n).
Setting [11] is: HEK293 cells expressing hGIPR, 0.1% Casein, geometric mean, read-out: hGIPR cAMP Rel EC50 nM (SEM, n).
[12] abbreviates: read-out: hGIPR Ki, nM (SEM, n).

The structures appear in SMILES notation. Like-named read-outs stand apart in the source and are kept apart here. Numbered stars: 1 amine (or outer) side, 2 acyl side, 3 side chain; on linkers, the order of the positions; unused ones are H or OH. Square brackets hold non-standard residues; d marks the D form. Side chains are listed from the residue outwards. Peptide text beside a SMILES is read from it. * marks the point of attachment. C20 diacid = O=C(O)CCCCCCCCCCCCCCCCCCC(=O)*; γGlu = O=C(O)[C@H](CCC(=O)[*:2])N[*:1]; αMeL = CC(C)C[C@](C)(N)C(=O)O; AEEA = NCCOCCOCC(=O)O; Aib = CC(C)(N)C(=O)O

As usually defined, the EC50 is the concentration that produces a half-maximal response. What is called Ki is the equilibrium dissociation constant of an inhibitor or competing ligand from its target.

human GLP-1 receptor (GLP-1R), sequence (P43220 24-463): as the sequence (P43220 24-463) above

Turning to `CC[C@H](C)[C@H](NC(=O)[C@H](CC(C)C)NC(=O)[C@H](Cc1ccc(O)cc1)NC(=O)[C@H](CCC(=O)O)NC(=O)[C@@H](NC(=O)[C@H](Cc1ccccc1)NC(=O)[C@H](C)NC(=O)C(C)(C)NC(=O)[C@H](CCC(N)=O)NC(=O)[C@H](C)NC(=O)[C@H](CCCCNC(=O)COCCOCCNC(=O)COCCOCCNC(=O)CC[C@H](NC(=O)CCCCCCCCCCCCCCCCCCC(=O)O)C(=O)O)NC(=O)[C@H](CCCCN)NC(=O)[C@H](CC(=O)O)NC(=O)[C@H](CC(C)C)NC(=O)[C@H](CC(C)C)NC(=O)[C@@H](NC(=O)[C@H](CO)NC(=O)[C@H](Cc1ccc(O)cc1)NC(=O)[C@H](CC(=O)O)NC(=O)[C@H](CO)NC(=O)[C@@H](NC(=O)[C@](C)(Cc1ccccc1)NC(=O)[C@@H](NC(=O)CNC(=O)[C@H](CCC(=O)O)NC(=O)C(C)(C)NC(=O)[C@H](N)Cc1ccc(O)cc1)[C@@H](C)O)[C@@H](C)O)[C@@H](C)CC)[C@@H](C)CC)C(=O)N[C@@H](CCC(=O)O)C(=O)NCC(=O)NCC(=O)N1CCC[C@H]1C(=O)N[C@@H](CO)C(=O)N[C@@H](CO)C(=O)NCC(=O)N[C@@H](C)C(=O)N1CCC[C@H]1C(=O)N1CCC[C@H]1C(=O)N1CCC[C@H]1C(=O)N[C@@H](CO)C(N)=O` [Example 329], the EC50 on human GLP-1R [1] (setting [6]) stood at 0.00473 µM; in assay [3] (setting [8]), 0.125 nM; on human GLP-1R [4] (setting [10]) it was 0.343 nM; in assay [5] (setting [11]), 0.132 nM. Besides, on human GLP-1R [1], the “hGLP1R B-Arrestin2 % Top” value was found to be 63.4%. Further, the Ki on human GLP-1R [2] (setting [7]) was 3.28 nM; at human Gcg receptor (setting [9]), 17 nM; at human GIP receptor (setting [12]) it was 0.0439 nM.
Turning to `CC[C@H](C)[C@H](NC(=O)[C@H](CC(C)C)NC(=O)[C@H](Cc1ccc(O)cc1)NC(=O)[C@H](CCC(=O)O)NC(=O)[C@@H](NC(=O)[C@H](Cc1ccccc1)NC(=O)[C@H](C)NC(=O)C(C)(C)NC(=O)[C@H](CCC(N)=O)NC(=O)[C@H](C)NC(=O)[C@H](CCCCNC(=O)COCCOCCNC(=O)COCCOCCNC(=O)CC[C@H](NC(=O)CCCCCCCCCCCCCCCCCCC(=O)O)C(=O)O)NC(=O)[C@H](CCCCN)NC(=O)[C@H](CC(=O)O)NC(=O)[C@H](CC(C)C)NC(=O)[C@](C)(CC(C)C)NC(=O)[C@@H](NC(=O)[C@H](CO)NC(=O)[C@H](Cc1ccc(O)cc1)NC(=O)[C@H](CC(=O)O)NC(=O)[C@H](CO)NC(=O)[C@@H](NC(=O)[C@](C)(Cc1ccccc1)NC(=O)[C@@H](NC(=O)CNC(=O)[C@H](CCC(=O)O)NC(=O)C(C)(C)NC(=O)[C@H](N)Cc1ccc(O)cc1)[C@@H](C)O)[C@@H](C)O)[C@@H](C)CC)[C@@H](C)CC)C(=O)N[C@@H](CCC(=O)O)C(=O)NCC(=O)NCC(=O)N1CCC[C@H]1C(=O)N[C@@H](CO)C(=O)N[C@@H](CO)C(=O)NCC(=O)N[C@@H](C)C(=O)N1CCC[C@H]1C(=O)N1CCC[C@H]1C(=O)N1CCC[C@H]1C(=O)N[C@@H](CO)C(N)=O` [Example 335], the EC50 stood at 0.00531 µM on human GLP-1R [1], 0.122 nM in assay [3], 0.285 nM at human GLP-1R [4] and 0.0477 nM in assay [5]. Further, the “hGLP1R B-Arrestin2 % Top” value at human GLP-1R [1] was 73%. Moreover, the Ki at human GLP-1R [2] amounted to 2.54 nM; at human Gcg receptor, 27.1 nM; on human GIP receptor, 0.0444 nM.
For `CC[C@H](C)[C@H](NC(=O)[C@H](CC(C)C)NC(=O)[C@H](Cc1ccc(O)cc1)NC(=O)[C@H](CCC(=O)O)NC(=O)[C@@H](NC(=O)[C@H](Cc1ccccc1)NC(=O)[C@H](CCC(=O)O)NC(=O)C(C)(C)NC(=O)[C@H](CCC(N)=O)NC(=O)[C@H](C)NC(=O)[C@H](CCCCNC(=O)COCCOCCNC(=O)COCCOCCNC(=O)CC[C@H](NC(=O)CCCCCCCCCCCCCCCCCCC(=O)O)C(=O)O)NC(=O)[C@H](CCCCN)NC(=O)[C@H](CC(=O)O)NC(=O)[C@H](CC(C)C)NC(=O)[C@](C)(CC(C)C)NC(=O)[C@@H](NC(=O)[C@H](CO)NC(=O)[C@H](Cc1ccc(O)cc1)NC(=O)[C@H](CC(=O)O)NC(=O)[C@H](CO)NC(=O)[C@@H](NC(=O)[C@H](Cc1ccccc1)NC(=O)[C@@H](NC(=O)CNC(=O)[C@H](CCC(=O)O)NC(=O)C(C)(C)NC(=O)[C@@H](N)Cc1ccc(O)cc1)[C@@H](C)O)[C@@H](C)O)[C@@H](C)CC)[C@@H](C)CC)C(=O)N[C@@H](CCC(=O)O)C(=O)NCC(=O)NCC(=O)N1CCC[C@H]1C(=O)N[C@@H](CO)C(=O)N[C@@H](CO)C(=O)NCC(=O)N[C@@H](C)C(=O)N1CCC[C@H]1C(=O)N1CCC[C@H]1C(=O)N1CCC[C@H]1C(=O)N[C@@H](CO)C(N)=O` [Example 333] (H-Y[Aib]EGTFTSDYSI[αMeL]LDKK([AEEA-AEEA-γGlu-C20 diacid])AQ[Aib]EFIEYLIEGGPSSGAPPPS-NH2), the EC50 at human GLP-1R [1] (setting [6]) amounted to 0.0548 µM; in assay [3] (setting [8]), 0.131 nM; on human GLP-1R [4] (setting [10]), 0.442 nM; in assay [5] (setting [11]) it was 0.0492 nM. At human GLP-1R [1], the “hGLP1R B-Arrestin2 % Top” value turned out to be 58.2%. For the same compound, the Ki at human GLP-1R [2] (setting [7]) amounted to 4.25 nM; at human Gcg receptor (setting [9]) it was 578 nM; on human GIP receptor (setting [12]), 0.0634 nM.
Regarding `CC[C@H](C)[C@H](NC(=O)[C@H](CC(C)C)NC(=O)[C@H](Cc1ccc(O)cc1)NC(=O)[C@H](CCC(=O)O)NC(=O)[C@@H](NC(=O)[C@H](Cc1ccccc1)NC(=O)[C@H](C)NC(=O)C(C)(C)NC(=O)[C@H](CCC(N)=O)NC(=O)[C@H](C)NC(=O)[C@H](CCCCNC(=O)COCCOCCNC(=O)COCCOCCNC(=O)CC[C@H](NC(=O)CCCCCCCCCCCCCCCCCCC(=O)O)C(=O)O)NC(=O)[C@H](CCC(=O)O)NC(=O)[C@H](CC(=O)O)NC(=O)[C@H](CC(C)C)NC(=O)[C@H](CC(C)C)NC(=O)[C@@H](NC(=O)[C@H](CO)NC(=O)[C@H](Cc1ccc(O)cc1)NC(=O)[C@H](CC(=O)O)NC(=O)[C@H](CO)NC(=O)[C@@H](NC(=O)[C@H](Cc1ccccc1)NC(=O)[C@@H](NC(=O)CNC(=O)[C@H](CCC(=O)O)NC(=O)C(C)(C)NC(=O)[C@@H](N)Cc1ccc(O)cc1)[C@@H](C)O)[C@@H](C)O)[C@@H](C)CC)[C@@H](C)CC)C(=O)N[C@@H](C)C(=O)NCC(=O)NCC(=O)N1CCC[C@H]1C(=O)N[C@@H](CO)C(=O)N[C@@H](CO)C(=O)NCC(=O)N[C@@H](C)C(=O)N1CCC[C@H]1C(=O)N1CCC[C@H]1C(=O)N1CCC[C@H]1C(=O)N[C@@H](CO)C(N)=O` [Example 330] (H-Y[Aib]EGTFTSDYSILLDEK([AEEA-AEEA-γGlu-C20 diacid])AQ[Aib]AFIEYLIAGGPSSGAPPPS-NH2), the EC50 was above 10.9 µM on human GLP-1R [1] (CHO-K1 cells, 0.1% w/v hydrolyzed Casein, read-out: hGLP1R B-Arrestin2 Rel EC50); above 10.9 µM at human GLP-1R [1] (setting [6]); 0.199 nM in assay [3] (setting [8]); 1.05 nM at human GLP-1R [4] (setting [10]); 0.0919 nM in assay [5] (setting [11]). Further, the values for the Ki at human Gcg receptor (setting [9]) and at human GIP receptor (setting [12]) were above 1050 nM and 0.114 nM, respectively.
